± gives the uncertainty stated by the source.
Experiment: xn = mol fraction of the nth substance listed

FC(F)C(F)(F)COC(F)(F)C(F)F + O=S(=O)([N-]S(=O)(=O)C(F)(F)F)C(F)(F)F.[Li+] + O=S1(=O)CCCC1
electrical conductivity (303.15 K, 101 kPa, x2 = 0.1429, x3 = 0.5714): 0.073 ± 0.002 S/m
electrical conductivity (303.15 K, 101 kPa, x2 = 0.1818, x3 = 0.5455): 0.09 ± 0.002 S/m
electrical conductivity (303.15 K, 101 kPa, x2 = 0.25, x3 = 0.5): 0.09 ± 0.002 S/m
electrical conductivity (303.15 K, 101 kPa, x2 = 0.4, x3 = 0.4): 0.079 ± 0.002 S/m

O=S(=O)([N-]S(=O)(=O)C(F)(F)F)C(F)(F)F.[Li+] + O
electrical conductivity (267.18 K, 100 kPa, x2 = 0.8271): 1.02 ± 0.02 S/m
electrical conductivity (272.15 K, 100 kPa, x2 = 0.8855): 2.04 ± 0.041 S/m
electrical conductivity (282.32 K, 100 kPa, x2 = 0.7538): 0.699 ± 0.014 S/m
electrical conductivity (283 K, 101 kPa, x1 = 0.2649): 0.62 ± 0.01 S/m
electrical conductivity (288.36 K, 100 kPa, x2 = 0.7538): 0.861 ± 0.017 S/m
electrical conductivity (292.1 K, 100 kPa, x1 = 0.0039): 0.966 ± 0.019 S/m
electrical conductivity (292.3 K, 100 kPa, x2 = 0.8065): 1.98 ± 0.04 S/m
viscosity (293 K, 100 kPa, x1 = 0.25): 23.6 ± 0.9 mPa·s
electrical conductivity (293 K, 101 kPa, x1 = 0.2649): 0.89 ± 0.02 S/m
viscosity (293 K, 101 kPa, x1 = 0.2649): 69.2 ± 2.2 mPa·s
electrical conductivity (296.88 K, 100 kPa, x2 = 0.8271): 2.71 ± 0.054 S/m
electrical conductivity (298 K, 101 kPa, x1 = 0.005377): 1.2 ± 0.02 S/m
viscosity (298 K, 101 kPa, x1 = 0.005377): 1.11 ± 0.02 mPa·s
electrical conductivity (298 K, 101 kPa, x1 = 0.05933): 5.79 ± 0.12 S/m
viscosity (298 K, 101 kPa, x1 = 0.05933): 3.11 ± 0.08 mPa·s
viscosity (298 K, 101 kPa, x1 = 0.112): 5.56 ± 0.16 mPa·s
electrical conductivity (298 K, 101 kPa, x1 = 0.1134): 4.7 ± 0.09 S/m
electrical conductivity (298 K, 101 kPa, x1 = 0.1778): 2.99 ± 0.06 S/m
electrical conductivity (298 K, 101 kPa, x1 = 0.2128): 2.2 ± 0.04 S/m
viscosity (298 K, 101 kPa, x1 = 0.2128): 22.22 ± 0.73 mPa·s
electrical conductivity (298 K, 101 kPa, x1 = 0.2639): 0.97 ± 0.02 S/m
viscosity (298 K, 101 kPa, x1 = 0.2649): 51.3 ± 1.9 mPa·s
electrical conductivity (298.1 K, 101 kPa, x1 = 0.2649): 1.04 ± 0.02 S/m
viscosity (298.1 K, 101 kPa, x1 = 0.2649): 55.3 ± 1.2 mPa·s
viscosity (298.15 K, 100 kPa, x1 = 0.112): 5.2 ± 0.4 mPa·s
viscosity (298.15 K, 100 kPa, x1 = 0.1896): 15.8 ± 1.3 mPa·s
viscosity (298.15 K, 100 kPa, x1 = 0.2333): 30.7 ± 2.5 mPa·s
viscosity (298.15 K, 100 kPa, x1 = 0.2547): 42.3 ± 3.4 mPa·s
viscosity (298.15 K, 100 kPa, x1 = 0.2741): 54.1 ± 4.3 mPa·s
electrical conductivity (301.65 K, 100 kPa, x2 = 0.8271): 3.13 ± 0.063 S/m
electrical conductivity (302.07 K, 100 kPa, x2 = 0.7538): 1.38 ± 0.028 S/m
electrical conductivity (302.07 K, 100 kPa, x2 = 0.9148): 5.85 ± 0.12 S/m
electrical conductivity (302.88 K, 100 kPa, x2 = 0.8495): 4.06 ± 0.081 S/m
electrical conductivity (303 K, 101 kPa, x1 = 0.2649): 1.22 ± 0.03 S/m
viscosity (303 K, 101 kPa, x1 = 0.2649): 45.4 ± 1 mPa·s
electrical conductivity (307.05 K, 100 kPa, x2 = 0.8065): 2.85 ± 0.057 S/m
electrical conductivity (307.24 K, 100 kPa, x2 = 0.9761): 4.9 ± 0.098 S/m
electrical conductivity (308.08 K, 100 kPa, x2 = 0.7538): 1.61 ± 0.032 S/m
viscosity (308.15 K, 100 kPa, x1 = 0.112): 4.3 ± 0.3 mPa·s
viscosity (308.15 K, 100 kPa, x1 = 0.1896): 11.5 ± 0.9 mPa·s
viscosity (308.15 K, 100 kPa, x1 = 0.2333): 21.5 ± 1.7 mPa·s
viscosity (308.15 K, 100 kPa, x1 = 0.2547): 29 ± 2.3 mPa·s
viscosity (308.15 K, 100 kPa, x1 = 0.2741): 36.1 ± 2.9 mPa·s
electrical conductivity (312.24 K, 100 kPa, x2 = 0.8065): 3.3 ± 0.066 S/m
electrical conductivity (312.86 K, 100 kPa, x2 = 0.6988): 0.916 ± 0.018 S/m
electrical conductivity (313 K, 101 kPa, x1 = 0.2649): 1.6 ± 0.03 S/m
viscosity (313 K, 101 kPa, x1 = 0.2649): 30.9 ± 0.7 mPa·s
electrical conductivity (315.76 K, 100 kPa, x2 = 0.7857): 2.85 ± 0.057 S/m
electrical conductivity (317.41 K, 100 kPa, x2 = 0.8271): 4.37 ± 0.087 S/m
electrical conductivity (317.41 K, 100 kPa, x2 = 0.8495): 5.49 ± 0.11 S/m
viscosity (318.15 K, 100 kPa, x1 = 0.112): 3.4 ± 0.3 mPa·s
viscosity (318.15 K, 100 kPa, x1 = 0.1896): 8.6 ± 0.7 mPa·s
viscosity (318.15 K, 100 kPa, x1 = 0.2333): 15.8 ± 1.3 mPa·s
viscosity (318.15 K, 100 kPa, x1 = 0.2547): 20.9 ± 1.7 mPa·s
viscosity (318.15 K, 100 kPa, x1 = 0.2741): 25.5 ± 2 mPa·s
electrical conductivity (318.47 K, 100 kPa, x2 = 0.6988): 1.07 ± 0.021 S/m
electrical conductivity (320.96 K, 100 kPa, x2 = 0.7857): 3.2 ± 0.064 S/m
electrical conductivity (321.15 K, 100 kPa, x2 = 0.9761): 6.42 ± 0.13 S/m
electrical conductivity (322.41 K, 100 kPa, x2 = 0.7538): 2.29 ± 0.046 S/m
electrical conductivity (323 K, 101 kPa, x1 = 0.2649): 2.04 ± 0.04 S/m
viscosity (323 K, 101 kPa, x1 = 0.2649): 21.8 ± 0.5 mPa·s
electrical conductivity (327.61 K, 100 kPa, x2 = 0.8271): 5.33 ± 0.11 S/m
electrical conductivity (327.8 K, 100 kPa, x2 = 0.6988): 1.36 ± 0.027 S/m
viscosity (328.15 K, 100 kPa, x1 = 0.112): 2.8 ± 0.2 mPa·s
viscosity (328.15 K, 100 kPa, x1 = 0.1896): 6.6 ± 0.5 mPa·s
viscosity (328.15 K, 100 kPa, x1 = 0.2333): 12 ± 1 mPa·s
viscosity (328.15 K, 100 kPa, x1 = 0.2547): 15.6 ± 1.3 mPa·s
viscosity (328.15 K, 100 kPa, x1 = 0.2741): 18.7 ± 1.5 mPa·s
electrical conductivity (329.06 K, 100 kPa, x2 = 0.7857): 3.73 ± 0.075 S/m
electrical conductivity (331.74 K, 100 kPa, x2 = 0.8271): 5.85 ± 0.12 S/m
electrical conductivity (331.96 K, 100 kPa, x2 = 0.8065): 4.85 ± 0.097 S/m
electrical conductivity (332.16 K, 100 kPa, x2 = 0.8855): 8.87 ± 0.18 S/m
electrical conductivity (332.58 K, 100 kPa, x2 = 0.9148): 10.1 ± 0.2 S/m
electrical conductivity (333 K, 100 kPa, x2 = 0.7538): 2.85 ± 0.057 S/m
electrical conductivity (333 K, 100 kPa, x2 = 0.8495): 7.06 ± 0.14 S/m
electrical conductivity (333 K, 101 kPa, x1 = 0.2649): 2.58 ± 0.05 S/m
viscosity (333 K, 101 kPa, x1 = 0.2649): 16.2 ± 0.4 mPa·s
electrical conductivity (334.65 K, 100 kPa, x2 = 0.7857): 4.15 ± 0.083 S/m
electrical conductivity (336.52 K, 100 kPa, x2 = 0.8855): 9.74 ± 0.2 S/m
electrical conductivity (339.84 K, 100 kPa, x2 = 0.7857): 4.6 ± 0.092 S/m
electrical conductivity (341.52 K, 100 kPa, x2 = 0.8271): 6.77 ± 0.14 S/m
electrical conductivity (341.94 K, 100 kPa, x1 = 0.0039): 2.36 ± 0.047 S/m
electrical conductivity (342.13 K, 100 kPa, x2 = 0.6601): 1.19 ± 0.024 S/m
electrical conductivity (342.75 K, 100 kPa, x2 = 0.8065): 5.73 ± 0.12 S/m
electrical conductivity (343.17 K, 100 kPa, x2 = 0.7538): 3.44 ± 0.069 S/m
electrical conductivity (347.11 K, 100 kPa, x1 = 0.0039): 2.52 ± 0.05 S/m
electrical conductivity (347.33 K, 100 kPa, x2 = 0.6988): 2.11 ± 0.042 S/m
electrical conductivity (347.53 K, 100 kPa, x2 = 0.9761): 9.34 ± 0.19 S/m
electrical conductivity (347.94 K, 100 kPa, x2 = 0.8495): 8.69 ± 0.17 S/m
electrical conductivity (352.3 K, 100 kPa, x2 = 0.8855): 11.8 ± 0.23 S/m
electrical conductivity (352.92 K, 100 kPa, x2 = 0.8065): 6.69 ± 0.13 S/m
electrical conductivity (356.24 K, 100 kPa, x2 = 0.7857): 5.78 ± 0.12 S/m
electrical conductivity (357.3 K, 100 kPa, x2 = 0.8855): 12.1 ± 0.24 S/m
electrical conductivity (357.7 K, 100 kPa, x2 = 0.9148): 13.9 ± 0.28 S/m

CCCCCC[N+](C)(C)C.[Br-] + O
viscosity (298.15 K, 101 kPa, x1 = 0.000888): 0.9148 mPa·s
viscosity (298.15 K, 101 kPa, x1 = 0.001394): 0.9261 mPa·s
viscosity (298.15 K, 101 kPa, x1 = 0.002133): 0.9439 mPa·s
viscosity (298.15 K, 101 kPa, x1 = 0.003331): 0.9727 mPa·s
viscosity (298.15 K, 101 kPa, x1 = 0.004173): 0.9962 mPa·s
electrical conductivity (298.15 K, 101 kPa, x1 = 0.004485): 1.84 ± 0.074 S/m
viscosity (298.15 K, 101 kPa, x1 = 0.005042): 1.019 mPa·s
viscosity (298.15 K, 101 kPa, x1 = 0.005996): 1.043 mPa·s
viscosity (298.15 K, 101 kPa, x1 = 0.006874): 1.066 mPa·s
viscosity (298.15 K, 101 kPa, x1 = 0.007743): 1.088 mPa·s
viscosity (298.15 K, 101 kPa, x1 = 0.008657): 1.113 mPa·s
viscosity (298.15 K, 101 kPa, x1 = 0.0096): 1.138 mPa·s
viscosity (298.15 K, 101 kPa, x1 = 0.01046): 1.162 mPa·s
viscosity (298.15 K, 101 kPa, x1 = 0.01139): 1.189 mPa·s
viscosity (298.15 K, 101 kPa, x1 = 0.01245): 1.222 mPa·s

O=S(=O)([N-]S(=O)(=O)C(F)(F)F)C(F)(F)F.[Li+] + COCCOCCOCCOCCOC
electrical conductivity (293 K, 100 kPa, frequency 0.05 MHz, x1 = 0.143): 0.235 ± 0.005 S/m
